Source: PMC12752606, “METTL10‐Mediated PIAS3 Methylation Links Purine Metabolism to Gastric Cancer Progression” (Advanced Science, 2025)

Experiments:
[1] = tested on: PIAS3-K442 methylation in MKN45 and AGS cells; assay: Immunoblotting of PIAS3-K442 methylation in GC cell lines; type: cell-based; conditions: 20 µM or higher, 24-hour treatment
Description: Protein extraction from tissues or cells was performed by lysis buffer (20 mM Tris‐HCl (pH 7.5), 150 mM NaCl, 1 mM EDTA, 1 mM EGTA, 2.5 mM sodium pyrophosphate, 1 mM β‐glycerolphosphate, 1% Triton X‐100) supplemented with 1% phenylmethylsulfonyl fluoride (PMSF; Solarbio, P0100) and protease inhibitor cocktail (Apexbio, K1007) and lysed at 4 °C for 60 min, followed by centrifugation at 12000 g for 15 min at 4 °C. For Immunoblotting, the protein concentration was determined using the Pierce BCA Protein Assay Kit (Thermo Fisher Scientific, A55864). The protein samples were denatured by boiling in SDS‐PAGE loading buffer. For immunoprecipitation, antibodies were incubated with Dynabeads Protein G (Thermo, 10004D) at 4 °C for 4 h. The supernatant was then incubated with magnetic beads conjugated with antibodies or anti‐FLAG‐M2 magnetic beads (Sigma–Aldrich, M8823) at 4 °C overnight. Following incubation, the magnetic beads were washed three times with lysis buffer and then boiled in SDS‐PAGE loading buffer. The proteins were separated by sodium dodecyl sulfate polyacrylamide gel electrophoresis (SDS‐PAGE) with One‐Step PAGE Gel Fast Preparation Kit (Vazyme), and then transferred to the PVDF Membrane (Bio‐Rad). After blocking with a protein‐free rapid blocking buffer (Epizyme, PS108P) for 15 min, the membranes were incubated with primary antibodies at 4 °C overnight. […]

[2] = Body weight and organ toxicity in treated tumor-bearing mice; type: in vivo; conditions: K19-C2mE and Cldn18-AT mice
Description: (§1) For the subcutaneous tumor model, 5 × 10⁶ MKN45 cells suspended in 100 µL of sterile PBS were injected subcutaneously into the flanks of BALB/c nude mice. When tumor volumes reached approximately 50 mm^3, mice were randomized into three groups (Vehicle control, LZQ‐02‐023‐01 at 20 mg/kg or 40 mg/kg, n = 10 per group). All treatments were administered via intraperitoneal injection once daily for 14 consecutive days. Tumor volumes were measured every 2 days using calipers and calculated using the formula: volume = [length × (width[2])]/2. Mice were sacrificed on day 24 for endpoint analyses. For genetically engineered mouse models (GEMMs), 25‐week‐old K19‐C2mE mice were randomized into Vehicle control (n = 8) and LZQ‐02‐023‐01 treatment (40 mg/kg, n = 8) groups. Both groups received daily intraperitoneal injections for 28 consecutive days. Similarly, 8‐week‐old Cldn18‐AT mice were induced with tamoxifen (100 mg/kg, T5648, Sigma) and, 2 weeks post‐induction, randomized into Vehicle (n = 6) and LZQ‐02‐023‐01 (40 mg/kg, n = 6) treatment groups. Treatments were administered daily via intraperitoneal injection for 28 days.

[3] = Acute toxicity, single intraperitoneal injection at escalating doses (LD50); conditions: ICR, mouse, in vivo, ip, ICR mice, 24 h survival
Description: For the acute toxic study, 8‐week‐old ICR mice (n = 6 per group) were administered a single intraperitoneal injection of LZQ‐02‐023‐01 at escalating doses. A vehicle‐treated group served as control. Survival was monitored continuously for 24 h postadministration. Additionally, another cohort of ICR mice (n = 5 per group) received a single intraperitoneal dose of LZQ‐02‐023‐01 at 125 mg/kg and were subsequently monitored daily for 7 days for clinical signs of toxicity, behavioral changes, body weight fluctuations, and mortality. At the conclusion of the observation period, animals were euthanized and subjected to a comprehensive gross necropsy. Major organs, including the liver, kidney, heart, lung, and spleen, were harvested for histopathological examination. For the chronic toxic study, 8‐week‐old ICR mice (n = 5 per group) received daily intraperitoneal injections of LZQ‐02‐023‐01 at a therapeutic dose of 40 mg/kg for 14 consecutive days. A vehicle‐treated group was included as a control. Throughout the treatment period, animals were monitored daily for clinical signs of toxicity and weighed every 2 days. At study termination, blood samples were collected for hematological and biochemical analyses. […]

[4] = tested on: MITF ubiquitination mediated by PIAS3 and METTL10; assay: In vitro ubiquitination assay with purified Flag-MITF; type: biochemical; conditions: 20 µM
Description: For the in vitro Sumoylation assay, bacteria‐purified GST‐PIAS3 and HEK293T‐purified MITF were incubated with SAE1, UBC9 in reaction buffer according to the manufacturer's instructions at 37 °C for 2 h. For the in vitro ubiquitination assay, purified His‐METTL10, GST‐PIAS3, Flag‐MITF, SAE1, and UBC9 proteins were incubated with ubiquitin, UBE1, UBE2B, and RNF4 in reaction buffer according to the manufacturer's instructions at 37 °C for 2 h. All the samples were subjected to immunoprecipitation and subsequently boiled in SDS‐PAGE loading buffer for immunoblotting.

[5] = tested on: gastric tumors of Cldn18-AT mice; assay: Cldn18-AT advanced gastric cancer mouse model; type: in vivo; conditions: 40 mg/kg/day i.p., 28 days
Description: as §1
Paraffin sections were initially placed in an oven at 65 °C for 30 min to melt the paraffin. The slides were then immersed in two consecutive xylene baths for 10 min each to dewax the tissue, followed by hydration through a series of graded ethanol solutions. […]

[6] = MKN45 xenograft, 20 or 40 mg/kg/day

Cc1ccc(Nc2ncc3c(n2)N(C)C(=O)N(c2cccc(N)c2)C3)cn1 [LZQ-02-023-01, Three‐(3‐aminophenyl)‐1‐methyl‐7‐((6‐methylpyridin‐3‐yl)amino)‐3,4‐dihydropyrimido [4,5‐d] pyrimidin‐2 (1H)‐one]
Methylation of PIAS3-K442 in GC cell lines [1]: decreased | Spleen weight ([2]; 40 mg/kg/day): reduction | Body weight loss [2, 6]: did not cause substantial weight loss | Discernible toxic effects on other organs [2, 6]: did not cause | LD50 at 24 h [3]: 213 mg/kg | PIAS3-mediated ubiquitination and degradation of MITF, cell-free system [4]: significantly promoted | Pathologic grade of lesions and proliferation (H&E, Ki-67) [5]: lower pathologic grade lesions and proliferation | Tumor burden and progression [5]: significantly reduced tumor burden and progression
